The values that follow come from patent publication US11524966B1 (Valo Early Discovery, Inc., priority 2017, dated 2022).

SMILES strings stand for the structures.

The target of the first assay is T1, USP25 (USP25-His6, Boston Biochem E-546) (Homo sapiens, UniProt Q9UHP3).
T1 construct: His6; purchased Boston Biochem E-546
T1 sequence (Q9UHP3 1-1055): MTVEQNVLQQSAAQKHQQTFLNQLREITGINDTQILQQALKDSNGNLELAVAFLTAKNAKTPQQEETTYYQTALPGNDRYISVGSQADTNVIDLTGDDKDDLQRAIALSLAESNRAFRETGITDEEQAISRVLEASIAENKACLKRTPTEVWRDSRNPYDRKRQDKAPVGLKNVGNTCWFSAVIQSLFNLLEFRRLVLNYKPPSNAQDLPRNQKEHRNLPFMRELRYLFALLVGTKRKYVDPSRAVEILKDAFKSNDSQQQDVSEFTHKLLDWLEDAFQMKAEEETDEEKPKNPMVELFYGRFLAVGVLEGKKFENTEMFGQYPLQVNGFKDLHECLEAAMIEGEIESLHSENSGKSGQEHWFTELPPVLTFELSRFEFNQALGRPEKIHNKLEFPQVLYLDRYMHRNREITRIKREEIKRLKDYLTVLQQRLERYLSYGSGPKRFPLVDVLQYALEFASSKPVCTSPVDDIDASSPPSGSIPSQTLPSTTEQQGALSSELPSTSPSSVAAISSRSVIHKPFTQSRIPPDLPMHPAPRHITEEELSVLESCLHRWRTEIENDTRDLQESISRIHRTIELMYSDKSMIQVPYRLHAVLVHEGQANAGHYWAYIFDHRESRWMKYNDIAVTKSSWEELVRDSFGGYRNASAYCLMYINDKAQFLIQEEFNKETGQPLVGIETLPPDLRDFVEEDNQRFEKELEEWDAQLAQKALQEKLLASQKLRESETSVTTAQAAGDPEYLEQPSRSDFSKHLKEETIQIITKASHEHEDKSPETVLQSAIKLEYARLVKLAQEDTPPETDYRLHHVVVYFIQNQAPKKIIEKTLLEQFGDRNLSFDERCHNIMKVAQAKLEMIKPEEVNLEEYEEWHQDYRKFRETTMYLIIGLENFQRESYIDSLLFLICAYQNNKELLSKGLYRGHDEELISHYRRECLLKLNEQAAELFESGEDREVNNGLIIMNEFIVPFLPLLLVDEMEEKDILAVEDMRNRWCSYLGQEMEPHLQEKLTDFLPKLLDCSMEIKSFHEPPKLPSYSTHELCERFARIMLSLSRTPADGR
The assay is described as follows: Ubiquitin-Rhodamine 110 Assay for USP25 Activity, Example A-2. The class given is biochemical. To be noted: Ubiquitin-Rhodamine 110 assay, Example A-2; read-out: USP25 A-2 IC50 range. A digest of the protocol: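 Read-out: Rh110 fluorescence (ex 485, em 535 nm) after 45 min RT turnover of 25 nM Ub-Rh110 by 75 pM USP25-His6, quenched with 10 mM citric acid. Compounds at 25 μM–1.3 nM, preincubated 30 min with enzyme. IC50 from 4-parameter logistic fit.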
Regarding `Cc1cnc2c(N)c(C(=O)N[C@H]3COc4cc(N5CC6CC(C5)N6)cc(F)c4C3)sc2n1` [Example 10-8, N-((3R)-7-(3,6-diazabicyclo[3.1.1]heptan-3-yl)-5-fluorochroman-3-yl)-7-amino-3-methylthieno[2,3-b]pyrazine-6-carboxamide], the half-maximal inhibitory concentration (IC50) lay within 0.05 to 0.2 µM. Take `CCn1ccc2cc(C(=O)N[C@H]3CCc4cc(N5CC6CCC(C5)N6)ccc4C3)cnc21` (single isomer, unassigned) [Example 11-9]: the IC50 is more than 2 µM. As to `Cc1cc(C(F)(F)F)c2c(N)c(C(=O)N[C@H]3COc4cc(N5CCNCC5)cc(F)c4C3)sc2n1` [Example 10-14, (R)-3-amino-N-(5-fluoro-7-(piperazin-1-yl)chroman-3-yl)-6-methyl-4-(trifluoromethyl)thieno[2,3-b]pyridine-2-carboxamide], the IC50 is 0.05 to 0.2 µM. Still for that read-out and setting: the result for `Cc1ccc2c(N)c(C(=O)N[C@H]3COc4cc(O[C@@H]5COC6(CNC6)C5)ccc4C3)sc2n1` (single isomer, unassigned) [Example 9-1] reads 0.05 to 0.2 µM. Same read-out and setting: the figure for `Cc1ccc2c(N)c(C(=O)N[C@@H]3CCc4cc(N5CCN[C@@H](CO)C5)ccc4C3)sc2n1` (single isomer, unassigned) [Example 7-11] is 0.2 to 2 µM.

With `CCn1ccc2cc(C(=O)N[C@H]3CCc4cc(N5CC6CCC(C5)N6)ccc4C3)nnc21` (single isomer, unassigned) [Example 11-24], the IC50 is more than 2 µM. Take `Cc1cnc2c(N)c(C(=O)N[C@H]3COc4cc(N5CC6CNCC(C5)O6)cc(F)c4C3)sc2n1` [Example 10-12, N-((3R)-7-(9-oxa-3,7-diazabicyclo[3.3.1]nonan-3-yl)-5-fluorochroman-3-yl)-7-amino-3-methylthieno[2,3-b]pyrazine-6-carboxamide]: the IC50 was 0.001 to 0.05 µM. On to `Cc1cc(C)c2c(N)c(C(=O)N[C@H]3COc4cc(N5CCNCC5)cc(F)c4C3)sc2n1` [Example 10-9, (R)-3-amino-N-(5-fluoro-7-(piperazin-1-yl)chroman-3-yl)-4,6-dimethylthieno[2,3-b]pyridine-2-carboxamide], for which the IC50 lay within 0.05 to 0.2 µM. Turning to `Cc1ccc2c(N)c(C(=O)N(C)[C@H]3COc4cc(N5CCNCC5)cc(F)c4C3)sc2n1` [Example 10-15, 3-amino-N-[(3R)-5-fluoro-7-(piperazin-1-yl)-3,4-dihydro-2H-1-benzopyran-3-yl)-N,6-dimethylthieno[2,3-b]pyridine-2-carboxamide], the IC50 was more than 2 µM. As to `Cc1nc2sc(C(=O)N[C@@H]3CCc4cc(N5CC6CCC(C5)N6)ccc4C3)c(N)c2cc1F` (single isomer, unassigned) [Example 11-4], the 50% inhibitory concentration (IC50) was 0.05 to 0.2 µM. `COc1ccc2c(N)c(C(=O)N[C@@H]3CCc4cc(N5CC6CCC(C5)N6)ccc4C3)sc2n1` (single isomer, unassigned) [Example 11-6]: the IC50 is more than 2 µM. For `Cc1cnc2c(N)c(C(=O)N[C@H]3CCc4cc(N5CC6CCC(C5)N6)ccc4C3)sc2n1` (single isomer, unassigned) [Example 11-7], the IC50 was 0.2 to 2 µM. `Cc1cnc2c(N)c(C(=O)N[C@H]3CCc4cc(N5CCNC[C@H](O)C5)ccc4C3)sc2n1` (single isomer, unassigned) [Example 7-6]: the IC50 is more than 2 µM. On to `CCn1ccc2cc(C(=O)N[C@@H]3CCc4cc(N5CC6CCC(C5)N6)ccc4C3)nnc21` (single isomer, unassigned) [Example 11-23], for which the IC50 is more than 2 µM. On to `Cc1cnc2c(N)c(C(=O)N[C@@H]3CCc4cc(N5CCNC[C@H](O)C5)ccc4C3)sc2n1` (single isomer, unassigned) [Example 7-7], for which the IC50 is more than 2 µM.

Take `Cc1ccc2c(N)c(C(=O)N[C@@H]3CCc4cc(N5CCN[C@H](CO)C5)ccc4C3)sc2n1` (single isomer, unassigned) [Example 7-10]: the IC50 was 0.2 to 2 µM. As for `Cc1nc2sc(C(=O)N[C@H]3CCc4cc(N5CC6CCC(C5)N6)ccc4C3)c(N)c2cc1F` (single isomer, unassigned) [Example 11-3], the IC50 lay within 0.2 to 2 µM. Take `Cc1cnc2c(N)c(C(=O)N[C@H]3CCc4cc(N5CC6CCC(C5)N6)cc(F)c4C3)sc2n1` (single isomer, unassigned) [Example 11-13]: the IC50 is more than 2 µM.

The same assay, now with this note: Ubiquitin-Rhodamine 110 assay, format Example A-2; read-out: USP25 A-2 IC50 range.
Consider `Cc1ccc2c(N)c(C(=O)N[C@H]3CCc4cc(N5CC6CCC(C5)N6)c(F)cc4C3)sc2n1` (single isomer, unassigned) [Example 21-4], for which the IC50 is more than 2 µM. As to `Cc1ccc2c(N)c(C(=O)N[C@H]3COc4cc(N5CCNCC5)ncc4C3)sc2n1` [Example 16, (R)-3-Amino-6-methyl-N-(7-(piperazin-1-yl)-3,4-dihydro-2H-pyrano[3,2-c]pyridin-3-yl)thieno[2,3-b]pyridine-2-carboxamide], the IC50 fell in the range of 0.2 to 2 µM. Still for that read-out and setting: the result for `Cc1ccc2c(N)c(C(=O)N[C@H]3COc4cc(N5CCNCC5)c(Cl)cc4C3)sc2n1` [Example 13-5, (R)-3-amino-N-(6-chloro-7-(piperazin-1-yl)chroman-3-yl)-6-methylthieno[2,3-b]pyridine-2-carboxamide] reads more than 2 µM; that for `Cc1ccc2c(N)c(C(=O)N[C@H]3CCc4c(ccc(N5CCNCC5)c4F)C3)sc2n1` (single isomer, unassigned) [Example 21-6], more than 2 µM. Turning to `CO[C@H]1CN(c2ccc3c(n2)CC[C@H](NC(=O)c2sc4nc(C)cnc4c2N)C3)C[C@@H]1N` (single isomer, unassigned) [Example 23-1], the IC50 is more than 2 µM.

Take `CO[C@H]1CN(c2ccc3c(n2)CC[C@@H](NC(=O)c2sc4nc(C)ccc4c2N)C3)C[C@@H]1N` [Example 23-5, 3-amino-N-[(6R)-2-[(3S,4S)-3-amino-4-methoxypyrrolidin-1-yl]-5,6,7,8-tetrahydroquinolin-6-yl]-6-methylthieno[2,3-b]pyridine-2-carboxamide]: the IC50 was more than 2 µM.

With `Cc1ccc2c(N)c(C(=O)N[C@H]3CCc4c(ccc(N5CC6CCC(C5)N6)c4F)C3)sc2n1` (single isomer, unassigned) [Example 21-2], the IC50 lay within 0.2 to 2 µM. `Cc1ccc2c(N)c(C(=O)N[C@@H]3CCc4cc(N5C6CNCC5C6)ccc4C3)sc2n1` (single isomer, unassigned) [Example 11-36]: the IC50 fell in the range of 0.2 to 2 µM. Turning to `Cc1ccc2c(N)c(C(=O)N[C@H]3COc4nc(N5CCNCC5)c(F)cc4C3)sc2n1` [Example 20, (R)-3-Amino-N-(6-fluoro-7-(piperazin-1-yl)-3,4-dihydro-2H-pyrano[2,3-b]pyridin-3-yl)-6-methylthieno[2,3-b]pyridine-2-carboxamide], the IC50 lay in the range of 0.2 to 2 µM. Regarding `Cc1ccc2c(N)c(C(=O)N[C@@H]3COc4cc(N5CC6CCC(C5)N6)c(F)c(F)c4C3)sc2n1` [Example 13-4, N-((3S)-7-(3,8-diazabicyclo[3.2.1]octan-3-yl)-5,6-difluorochroman-3-yl)-3-amino-6-methylthieno[2,3-b]pyridine-2-carboxamide], the IC50 was in the range of 0.05 to 0.2 µM.

Regarding `Cc1ccc2c(N)c(C(=O)N[C@H]3CCc4c(F)c(N5CC6CNCC(C5)O6)cc(F)c4C3)sc2n1` (single isomer, unassigned) [Example 22-3], the IC50 is more than 2 µM. In the case of `Cc1nc2sc(C(=O)N[C@H]3CCc4cc(N5CC6CCC(C5)N6)ccc4C3)c(N)c2s1` (single isomer, unassigned) [Example 12-1], the IC50 is more than 2 µM.

Consider `Cc1ccc2c(N)c(C(=O)N[C@@H]3CCc4c(F)c(N5CC6CCC(C5)N6)cc(F)c4C3)sc2n1` (single isomer, unassigned) [Example 22-6], for which the IC50 is more than 2 µM. In the case of `Cc1ccc2c(N)c(C(=O)N[C@@H]3CCc4c(ccc(N5CC6CCC(C5)N6)c4F)C3)sc2n1` (single isomer, unassigned) [Example 21-1], the IC50 was more than 2 µM.

Consider `Cc1ccc2c(N)c(C(=O)N[C@@H]3CCc4c(F)c(N5CCNCC5)cc(F)c4C3)sc2n1` (single isomer, unassigned) [Example 22-2], for which the IC50 was in the range of 0.05 to 0.2 µM.
